# Results reported in patent USRE36784E, “Chemoprotective isothiocyanates” (The Johns Hopkins University, priority 1997, dated 2000).
# Entries after “also recorded” stand apart in the source; their conditions may differ. Read-outs that look alike come from different tables or passages of the source.
# Legend:
# [1] = system: Hepa 1c1c7 murine hepatoma cells; conditions: Hepa 1c1c7 cells
# Protocol: (§1) Assay of Inducer Potency. Inducer activity was measured in Hepa 1c1c7 murine hepatoma cells grown in 96-well microtiter plates (Prochaska and Santamaria, Anal. Biochem. 169:328-336 (1988); Prochaska et al., Proc. Natl. Acad. Sciences USA 89:2394-2398 (1992)). QR activity (based on the formation of the blue-brown reduced tetrazolium dye) was measured with an optical microtiter plate scanner in cell lysates prepared in one plate, and the cell density was determined in the second plate by staining with crystal violet. Quantitative information on specific activity of QR, the inducer potency, and the cytotoxicity of the extract or compound tested is obtained by computer analysis of the absorbances. One unit of inducer activity is defined as the amount that when added to a single microtiter well doubled the QR specific activity. The CD value is the concentration of a compound required to double the quinone reductase specific activity in Hepa 1c1c7 murine hepatoma cells.
# [2] = system: quinone reductase (QR) in Hepa 1c1c7 murine hepatoma cells; test: Induction of QR (inducer potency, CD value) in Hepa 1c1c7 murine hepatoma cells; format: cell-based; conditions: for activity as inducers compared with sulforaphane and sulforaphene: in cell culture
# Protocol: as §1
# Each of the analogs of sulforaphane was tested for the ability to induce QR in murine hepatoma cells by the assay described in Example 1.
# Analogs were synthesized and tested in the hepatoma cell assay described in Example 1.
# QR (quinone reductase) = test: Induction of QR in mouse tissues after gavage; format: in vivo, mouse (female CD-1)
# Protocol: (§2) The compounds were administered to 6week-old female CD1 mice (4 or 5 mice
# (§3) per group) by gavage in indicated single daily doses in 0.1 ml of Emulpho
# (§4) EL 620P (GAF. Linden, NJ) for 5 days. Cytosols were prepared from the
# (§5) tissues 24 hr after the last treatment and assayed for enzyme activities
# (§6) (glutathione Stransferase was measured with 1chloro-2,4-dinitrobenzene).
# (§7) The specific activities (nmol · min^-1 · mg^-1
# (§8) ± SEM) of organs of vehicletreated #control mice were as follows.
# (§9) 54 ± 5.8: GST. 439 ± 34. Data are presented as mean ± SEM.
# [3] = system: glutathione S-transferase (GST); test: Induction of glutathione S-transferase (GST) in mouse tissues after gavage; format: in vivo, mouse (female CD-1)
# Protocol: as §2, §3, §4, §5, §6, §7, §8, §9
# [4] = system: QR in cl mutant (which synthesizes inactive cytochrome P-450IA1); conditions: data not shown
# [5] = system: phase I and phase II enzymes in mutants of Hepa 1c1c7 cells; conditions: phase II selective = monofunctional
# [6] = system: QR in BP^r cl mutant (defective in transport of the liganded Ah receptor to the nucleus); conditions: data not shown
# [7] = system: phase I and phase II enzymes in mutants of Hepa 1c1c7 cells; conditions: Prochaska et al. 1988; cited from earlier work
# [8] = system: quinone reductase (QR) in Hepa 1c1c7 murine hepatoma cells; design: unit not given here; conditions: footnote 3, reported value; cited from earlier work
# [9] = Mus musculus, Hepa-1c1c7, text, isolated (R)- and synthetic (R,S)-sulforaphane, read-out: CD values
# [10] = 15 μmol per mouse per day, gavage, 5 days, glandular stomach
# [11] = 15 μmol per mouse per day, gavage, 5 days, liver
# [12] = 15 μmol per mouse per day, gavage, 5 days, lung
# [13] = 15 μmol per mouse per day, gavage, 5 days, proximal small intestine
# [14] = Mus musculus, Hepa-1c1c7, read-out: CD, Table 3, QR induction, hepatoma cell assay of Example 1
# [15] = Mus musculus, Hepa-1c1c7, read-out: CD value, Table 1, QR induction, Hepa 1c1c7 cells
# [16] = Table 3, QR induction, hepatoma cell assay of Example 1, read-out: CD
Compound,"EC (2-fold QR specific activity) [2, 14] [µM]",further results
"C[S+]([O-])CCCCN=C=S (racemic) [(R,S)-sulforaphane]",,"cytotoxicity in words [1]: relatively noncytotoxic; EC (2-fold QR specific activity) [2, 9]: 0.2 to 0.4 µM"
C[S+]([O-])CCCCN=C=S (racemic) [Sulforaphane],,"rise in QR activity in lung (QR (quinone reductase); 15 μmol daily for 5 days, lung): to a lesser degree; Ratio of specific activities (treated/control), QR, Forestomach (QR (quinone reductase); 15 μmol per mouse per day, gavage, 5 days, forestomach, *P < 0.05): 1.70 ± 0.18; Ratio of specific activities (treated/control), QR, Glandular stomach (QR (quinone reductase); [10]): 2.35 ± 0.06; Ratio of specific activities (treated/control), QR, Liver (QR (quinone reductase); [11]): 2.45 ± 0.07; Ratio of specific activities (treated/control), QR, Lung (QR (quinone reductase); [12]): 1.37 ± 0.14; Ratio of specific activities (treated/control), QR, Proximal small intestine (QR (quinone reductase); [13]): 2.34 ± 0.19; rise in glutathione transferase activity in lung ([3]; 15 μmol daily for 5 days, lung): to a lesser degree; Ratio of specific activities (treated/control), GST, Forestomach ([3]; 15 μmol per mouse per day, gavage, 5 days, forestomach): 1.98 ± 0.08; Ratio of specific activities (treated/control), GST, Glandular stomach [3, 10]: 2.97; Ratio of specific activities (treated/control), GST, Liver [3, 11]: 1.86 ± 0.08; Ratio of specific activities (treated/control), GST, Lung [3, 12]: 1.17; Ratio of specific activities (treated/control), GST, Proximal small intestine [3, 13]: 2.13; induction of QR in mutant cells [4]: normal; inducer type [5]: monofunctional inducer; induction of QR in mutant cells [6]: normal; EC (2-fold QR specific activity) ([2]; Mus musculus, Hepa-1c1c7, Table 1, QR induction, Hepa 1c1c7 cells, read-out: CD value): 0.4 to 0.8 µM; relative potency as inducers of QR ([2]; comparison in words, Table 1): most potent monofunctional inducer that has been identified; also recorded: equipotent"
"CS(=O)(=O)[C@@H]1CCC[C@@H](CN=C=S)C1 (relative stereo) [GHP 1079, cis- or trans-3-(methylsulfonyl)cyclohexylmethylisothiocyanate]",0.48,
"CS(=O)(=O)[C@@H]1CCC[C@H](CN=C=S)C1 (relative stereo) [GHP 1080, cis- or trans-3-(methylsulfonyl)cyclohexylmethylisothiocyanate]",0.41,
C[S@@+]([O-])CCCCN=C=S [(R)-sulforaphane],,"cytotoxicity in words [1]: relatively noncytotoxic; inducer activity ([2]; 8.9 mg isolated after HPLC/TLC/HPLC): 558,000 inducer units; EC (2-fold QR specific activity) [2, 9]: 0.2 to 0.4 µM"
C[S+]([O-])CCCCCN=C=S (stereo not shown) [Alyssin],,"EC (2-fold QR specific activity) [2, 15]: 0.95 µM; activity as inducers compared with sulforaphane and sulforaphene [2]: less active"
S=C=NCc1ccccc1 [Benzylisothiocyanate],,inducer type [7]: monofunctional inducer
CSCCCCCN=C=S [Berteroin],,"EC (2-fold QR specific activity) [2, 15]: 1.7 µM; activity as inducers compared with sulforaphane and sulforaphene [2]: less active"
CS(=O)(=O)CCCN=C=S [Cheirolin],,"EC (2-fold QR specific activity) [2, 15]: 1.3 µM; activity as inducers compared with sulforaphane and sulforaphene [2]: less active"
CSCCCCCN=C=S [GHP 1001],1.71,
C[S+]([O-])CCCCCN=C=S (stereo not shown) [GHP 1002],0.94,
"CS(=O)(=O)CCCCCN=C=S [GHP 1003, 1-isothiocyanato-5-methylsulfonylpentane]",0.98,"EC (2-fold QR specific activity) [2, 15]: 0.98 µM"
S=C=NCCCCCSSCCCCCN=C=S [GHP 1004],0.83,
C[S+]([O-])CCCCN=C=S (stereo not shown) [GHP 1005],,"EC (2-fold QR specific activity) ([2]; Mus musculus, Hepa-1c1c7, Table 3, QR induction, hepatoma cell assay of Example 1, read-out: CD): 0.2 µM"
CS(=O)(=O)CCCCN=C=S [GHP 1007],0.82,
CSCCCN=C=S [GHP 1008],3.52,
C[S+]([O-])CCCN=C=S (stereo not shown) [GHP 1009],2.36,
CS(=O)(=O)CCCN=C=S [GHP 1010],1.32,
CSCc1ccccc1CN=C=S [GHP 1021],4.3,
CSc1ccccc1CCN=C=S [GHP 1022],7.4,
CSCCc1ccccc1N=C=S [GHP 1023],100,

Compound,"EC (2-fold QR specific activity) [2, 14] [µM]",further results
COc1ccccc1N=C=S [GHP 1031],100,
S=C=Nc1ccccc1Cl [GHP 1032],100,
NC(=O)c1ccc(N=C=S)cc1 [GHP 1033],100,
COc1ccccc1CN=C=S [GHP 1041],2.41,
COc1cccc(CN=C=S)c1 [GHP 1042],8.65,
COc1ccc(CN=C=S)cc1 [GHP 1043],25,
COc1cccc(OC)c1CN=C=S [GHP 1044],5.8,
CN(C)c1ccccc1CN=C=S [GHP 1045],12.5,
CSc1ccccc1CN=C=S [GHP 1046],6.8,
Fc1ccccc1CN=C=S [GHP 1047],13.1,
S=C=NCc1ccccc1Cl [GHP 1048],14.1,
S=C=NCc1ccccc1Br [GHP 1049],12.5,
Cc1ccccc1CN=C=S [GHP 1050],3.7,
CCOc1ccccc1CN=C=S [GHP 1051],2.5,
S=C=NC1CCc2ccccc21 (stereo not shown) [GHP 1052],38.9,
CCc1ccccc1CN=C=S [GHP 1053],12.5,
CCOC(=O)CN=C=S [GHP 1061],8.2,
CS(=O)(=O)c1ccc(CN=C=S)cc1 [GHP 1062],1.2,
CS(=O)(=O)C1CC2CC1CC2N=C=S (stereo not shown) [GHP 1063],1.02,
CS(=O)(=O)C1CC2CC1CC2N=C=S (stereo not shown) [GHP 1064],,"EC (2-fold QR specific activity) [2, 16]: 0.66 µM"
CC(=O)C1CC2CC1CC2N=C=S (stereo not shown) [GHP 1065],0.77,

Compound,"EC (2-fold QR specific activity) [2, 14] [µM]",further results
"CC(=O)C1CC2CC(N=C=S)C1C2 (stereo not drawn) [GHP 1066, exo-2-acetyl-6-isothiocyanatonorbornane]",0.26,
"CC(=O)C1CC2CC1CC2N=C=S (stereo not drawn) [GHP 1067, exo-2-acetyl-5-isothiocyanatonorbornane]",,"EC (2-fold QR specific activity) [2, 16]: 0.43 µM"
"CS(=O)(=O)C1CC2CC(N=C=S)C1C2 (stereo not drawn) [GHP 1068, exo-2-isothiocyanato-6-methylsulfonylnorbornane]",0.15,
COC(=O)C1CC2CC1CC2N=C=S (stereo not shown) [GHP 1069],0.68,
COC(=O)C1CC2CC(N=C=S)C1C2 (stereo not shown) [GHP 1070],1.6,
N#CC1CC2CC1CC2N=C=S (stereo not shown) [GHP 1071],0.59,
O=[N+]([O-])C1CC2CC1CC2N=C=S (stereo not shown) [GHP 1072],1.05,
"CS(=O)(=O)[C@H]1CC[C@@H](N=C=S)CC1 [GHP 1073, cis-1-isothiocyanate-4-methylsulfonylcyclohexane]",0.44,
CCOC(=O)C(CCS(C)(=O)=O)N=C=S (stereo not shown) [GHP 1074],2.64,
"CC(O)C1CC2CC1CC2N=C=S (stereo not drawn) [GHP 1075, exo-2-(1'-hydroxyethyl)-5-isothiocyanatonorbornane]",0.45,
OC1CC2CC1CC2N=C=S (stereo not shown) [GHP 1077],1.85,
"CP(C)(=O)CCCCN=C=S [GHP 1078, 1-isothiocyanato-4-dimethylphosphonyl-butane]",0.43,
CCCCC(=O)CCCCN=C=S [GHP 1081],2,
N#CCCCCN=C=S [GHP 1101],1.97,
COC(=O)CCCCN=C=S [GHP 1102],2.81,
O=C(O)CCCCN=C=S [GHP 1103],2.19,
"CC(=O)CCCCN=C=S [GHP 1105, 6-isothiocyanato-2-hexanone]",0.23,
"CC(O)CCCCN=C=S (stereo not shown) [GHP 1106, 6-isothiocyanato-2-hexanol]",0.35,
C[S+]([O-])CCCN=C=S (stereo not shown) [Iberin],,"EC (2-fold QR specific activity) [2, 15]: 2.4 µM; activity as inducers compared with sulforaphane and sulforaphene [2]: less active"
CSCCCN=C=S [Iberverin],,"EC (2-fold QR specific activity) [2, 15]: 3.5 µM; activity as inducers compared with sulforaphane and sulforaphene [2]: less active"
S=C=NC1CCCCC1 [cyclohexylisothiocyanate],,CD value (reported) [8]: 14
